Columns and labels:
wild oat = test: Test Example 1, foliar treatment, herbicidal activity; assay type: in vivo, Avena fatua; conditions: 3 weeks; note: ranges in brackets are in %
Method: (§1) The application of the tetrahydrophthalimides (I) as herbicides will be illustratively shown in the following Examples wherein the phytotoxicity to cultivated plants and the herbicidal activity on weeds were evaluated as follows: the aerial parts of the test plants were cut off and weighed (fresh weight); the percentage of the fresh weight of the treated plant to that of the untreated plant was calculated with the latter fresh weight taken as 100; and the crop damage and the herbicidal activity were evaluated by the standard given in the table below. The rating values of phytotoxicity, 0 and 1, and those of herbicidal effect, 5 and 4, are generally regarded as satisfactory to protect cultivated plants and control weeds, respectively. The rating values in the paddy field test alone were calculated from the dry weight of the test plants.
(§2) Plastic beakers (diameter, 10 cm; height, 10 cm) were filled with upland field soil, and the seeds of corn, barnyardgrass, wild oat, wild mustard and velvetleaf were separately sown in the beakers and grown for 2 weeks in the greenhouse. A designed amount of the test compound was sprayed to the foliage of the test plants by means of a small hand sprayer. After the spraying, the test plants were further grown for 3 weeks in the greenhouse, and herbicidal activity was examined. In this foliar treatment, the test compounds were formulated into an emulsifiable concentrate according to Preparation Example 2 and applied at a spray volume of 5 liters per are by dispersing it in water with the addition of a spreading agent.

corn [1] = test: Test Example 3, soil surface spraying, phytotoxicity to corn; assay type: in vivo; conditions: 20 days; note: ranges in brackets are in %
Method: as §1
(§3) Plastic trays (35 cm×25 cm×15 cm) were filled with upland field soil, and the seeds of tall morningglory, velvetleaf and sicklepod and the seeds of corn were sown therein. A designed amount of the test compounds formulated into a wettable powder according to Preparation Example 1 was dispersed in water and applied by spraying at a spray volume of 5 liters per are to the whole surface of the soil. After the spraying, the test plants were placed in a greenhouse and grown for 20 days, and herbicidal activity and phytotoxicity were examined.

barnyardgrass [2] = test: Test Example 1, foliar treatment, herbicidal activity; assay type: in vivo, Echinochloa crus-galli; conditions: 3 weeks; note: ranges in brackets are in %
Method: as §1, §2

wild mustard = test: as above; assay type: in vivo, Brassica kaber; conditions: 3 weeks
Method: as §1, §2

corn [3] = test: Test Example 1, foliar treatment, phytotoxicity to corn; assay type: in vivo; conditions: 3 weeks; note: ranges in brackets are in %
Method: as §1, §2

sicklepod = test: Test Example 3, soil surface spraying, herbicidal activity; assay type: in vivo, Cassia obtusifolia; conditions: 20 days; note: ranges in brackets are in %
Method: as §1, §3

velvetleaf [4] = test: Test Example 1, foliar treatment, herbicidal activity; assay type: in vivo, Abutilon theophrasti; conditions: 3 weeks; note: ranges in brackets are in %
Method: as §1, §2

tall morningglory = test: Test Example 3, soil surface spraying, herbicidal activity; assay type: in vivo, Ipomoea purpurea; conditions: 20 days; note: ranges in brackets are in %
Method: as §1, §3

velvetleaf [5] = test: as above; assay type: in vivo, Abutilon theophrasti; conditions: 20 days
Method: as §1, §3

arrowhead = test: Test Example 7, flooded paddy pot dripping, herbicidal activity; assay type: in vivo, Sagittaria pygmaea; conditions: 3 weeks; note: ranges in brackets are in %
Method: as §1
(§4) Wagner's pots (1/5000 are) were filled with paddy field soil and water was poured therein to make a flooded condition. Rice seedlings of the 3-leaf stage were transplanted and tubers of slender spikerush and arrowhead and the seeds of barnyardgrass, monochoria and broad-leaved weed were sowed therein and grown for 5 days. When germination occurs, a designed amount of the test compound formulated into an emulsifiable concentrate according to Preparation Example 2 was applied to the pots by dripping. The test plants were grown for a further 3 weeks, and herbicidal activity and phytotoxicity were examined. The herbicidal activity was evaluated in figures ranging from 0 to 5. The phytotoxicity to the crop plants was also indicated on the same standard as that of the herbicidal activity.

barnyardgrass [6] = test: as above; assay type: in vivo, Echinochloa crus-galli; conditions: 3 weeks
Method: as §1, §4

broad-leaved weed = test: as above; assay type: in vivo; conditions: 3 weeks; note: ranges in brackets are in %
Method: as §1, §4

rice plant = test: Test Example 7, flooded paddy pot dripping, phytotoxicity to rice plant; assay type: in vivo; conditions: 3 weeks; note: ranges in brackets are in %
Method: as §1, §4

monochoria = test: Test Example 7, flooded paddy pot dripping, herbicidal activity; assay type: in vivo, Monochoria vaginalis; conditions: 3 weeks; note: ranges in brackets are in %
Method: as §1, §4

slender spikerush = test: as above; assay type: in vivo, Eleocharis acicularis; conditions: 3 weeks; note: ranges in brackets are in %
Method: as §1, §4
Throughout, for Herbicidal activity, Barnyardgrass: ranges in brackets are in %.
Throughout, for Herbicidal activity, Velvetleaf: ranges in brackets are in %.

| Compound | Herbicidal activity, Wild cat (wild oat; 1.25 g/are) | Herbicidal activity, Wild cat (wild oat; 5 g/are) | Herbicidal activity, Allowhead (arrowhead; 1.25 g/are) | Herbicidal activity, Allowhead (arrowhead; 2.5 g/are) | Herbicidal activity, Allowhead (arrowhead; 5 g/are) | Herbicidal activity, Barnyardgrass (barnyardgrass [6]; 1.25 g/are) | Herbicidal activity, Barnyardgrass (barnyardgrass [6]; 2.5 g/are) | Herbicidal activity, Barnyardgrass (barnyardgrass [6]; 5 g/are) | Herbicidal activity, Broad-leaved weed (broad-leaved weed; 1.25 g/are) | Herbicidal activity, Broad-leaved weed (broad-leaved weed; 2.5 g/are) | Herbicidal activity, Broad-leaved weed (broad-leaved weed; 5 g/are) | Phytotoxicity, Rice plant (rice plant; 1.25 g/are) | Phytotoxicity, Rice plant (rice plant; 2.5 g/are) | Phytotoxicity, Rice plant (rice plant; 5 g/are) | Herbicidal activity, Monochoria (monochoria; 1.25 g/are) | Herbicidal activity, Monochoria (monochoria; 2.5 g/are) | Herbicidal activity, Monochoria (monochoria; 5 g/are) | Herbicidal activity, Slender spikerush (slender spikerush; 1.25 g/are) | Herbicidal activity, Slender spikerush (slender spikerush; 2.5 g/are) | Herbicidal activity, Slender spikerush (slender spikerush; 5 g/are) | further results |
| --- | --- | --- | --- | --- | --- | --- | --- | --- | --- | --- | --- | --- | --- | --- | --- | --- | --- | --- | --- | --- | --- |
| CC(C)COc1cc(N2C(=O)C3=C(CCCC3)C2=O)c(F)cc1Cl [compound 5] | 1 (41-60) | 4 (1-10) |  |  |  |  |  |  |  |  |  |  |  |  |  |  |  |  |  |  | Phytotoxicity, Corn (corn [1]; 5 g/are): 0 (100); Phytotoxicity, Corn (corn [1]; 10 g/are): 0 (100); Herbicidal activity, Barnyardgrass (barnyardgrass [2]; 1.25 g/are): 2 (21-40); Herbicidal activity, Barnyardgrass (barnyardgrass [2]; 5 g/are): 4 (1-10); Herbicidal activity, Wild mustard (wild mustard; 1.25 g/are): 3 (11-20); Herbicidal activity, Wild mustard (wild mustard; 5 g/are): 5 (0); Phytotoxicity, Corn (corn [3]; 1.25 g/are): 0 (100); Phytotoxicity, Corn (corn [3]; 5 g/are): 0 (100); Herbicidal activity, Sicklepod (sicklepod; 5 g/are): 4 (1-10); Herbicidal activity, Sicklepod (sicklepod; 10 g/are): 4 (1-10); Herbicidal activity, Velvetleaf (velvetleaf [4]; 1.25 g/are): 5 (0); Herbicidal activity, Velvetleaf (velvetleaf [4]; 5 g/are): 5 (0); Herbicidal activity, Tall morningglory (tall morningglory; 5 g/are): 4 (1-10); Herbicidal activity, Tall morningglory (tall morningglory; 10 g/are): 5 (0); Herbicidal activity, Velvetleaf (velvetleaf [5]; 5 g/are): 5 (0); Herbicidal activity, Velvetleaf (velvetleaf [5]; 10 g/are): 5 (0) |
| CC(C)CCOc1cc(N2C(=O)C3=C(CCCC3)C2=O)c(F)cc1Cl [compound 11] |  |  | 3 (50-69) | 4 (70-89) | 5 (90-100) | 4 (70-89) | 5 (90-100) | 5 (90-100) | 5 (90-100) | 5 (90-100) | 5 (90-100) | 0 (0-9) | 0 (0-9) | 0 (0-9) | 5 (90-100) | 5 (90-100) | 5 (90-100) | 4 (70-89) | 4 (70-89) | 5 (90-100) |  |
| CCC(C)Oc1cc(N2C(=O)C3=C(CCCC3)C2=O)c(F)cc1Cl (stereo not drawn) [compound 4] | 2 (21-40) | 5 (0) |  |  |  |  |  |  |  |  |  |  |  |  |  |  |  |  |  |  | Phytotoxicity, Corn (corn [1]; 5 g/are): 0 (100); Phytotoxicity, Corn (corn [1]; 10 g/are): 0 (100); Herbicidal activity, Barnyardgrass (barnyardgrass [2]; 1.25 g/are): 1 (41-60); Herbicidal activity, Barnyardgrass (barnyardgrass [2]; 5 g/are): 5 (0); Herbicidal activity, Wild mustard (wild mustard; 1.25 g/are): 4 (1-10); Herbicidal activity, Wild mustard (wild mustard; 5 g/are): 5 (0); Phytotoxicity, Corn (corn [3]; 1.25 g/are): 0 (100); Phytotoxicity, Corn (corn [3]; 5 g/are): 1 (90-99); Herbicidal activity, Sicklepod (sicklepod; 5 g/are): 4 (1-10); Herbicidal activity, Sicklepod (sicklepod; 10 g/are): 4 (1-10); Herbicidal activity, Velvetleaf (velvetleaf [4]; 1.25 g/are): 5 (0); Herbicidal activity, Velvetleaf (velvetleaf [4]; 5 g/are): 5 (0); Herbicidal activity, Tall morningglory (tall morningglory; 5 g/are): 4 (1-10); Herbicidal activity, Tall morningglory (tall morningglory; 10 g/are): 5 (0); Herbicidal activity, Velvetleaf (velvetleaf [5]; 5 g/are): 5 (0); Herbicidal activity, Velvetleaf (velvetleaf [5]; 10 g/are): 5 (0) |
| CCCCOc1cc(N2C(=O)C3=C(CCCC3)C2=O)c(F)cc1Cl [compound 6] | 1 (41-60) | 3 (11-20) |  |  |  |  |  |  |  |  |  |  |  |  |  |  |  |  |  |  | Phytotoxicity, Corn (corn [1]; 5 g/are): 0 (100); Phytotoxicity, Corn (corn [1]; 10 g/are): 0 (100); Herbicidal activity, Barnyardgrass (barnyardgrass [2]; 1.25 g/are): 3 (11-20); Herbicidal activity, Barnyardgrass (barnyardgrass [2]; 5 g/are): 4 (1-10); Herbicidal activity, Wild mustard (wild mustard; 1.25 g/are): 4 (1-10); Herbicidal activity, Wild mustard (wild mustard; 5 g/are): 5 (0); Phytotoxicity, Corn (corn [3]; 1.25 g/are): 0 (100); Phytotoxicity, Corn (corn [3]; 5 g/are): 0 (100); Herbicidal activity, Sicklepod (sicklepod; 5 g/are): 4 (1-10); Herbicidal activity, Sicklepod (sicklepod; 10 g/are): 4 (1-10); Herbicidal activity, Velvetleaf (velvetleaf [4]; 1.25 g/are): 5 (0); Herbicidal activity, Velvetleaf (velvetleaf [4]; 5 g/are): 5 (0); Herbicidal activity, Tall morningglory (tall morningglory; 5 g/are): 4 (1-10); Herbicidal activity, Tall morningglory (tall morningglory; 10 g/are): 4 (1-10); Herbicidal activity, Velvetleaf (velvetleaf [5]; 5 g/are): 5 (0); Herbicidal activity, Velvetleaf (velvetleaf [5]; 10 g/are): 5 (0) |
| CCCCCCCCOc1cc(N2C(=O)C3=C(CCCC3)C2=O)c(F)cc1Cl [Compound No. 10] |  |  | 3 (50-69) | 4 (70-89) | 4 (70-89) | 3 (50-69) | 4 (70-89) | 5 (90-100) | 5 (90-100) | 5 (90-100) | 5 (90-100) | 0 (0-9) | 0 (0-9) | 0 (0-9) | 5 (90-100) | 5 (90-100) | 5 (90-100) | 3 (50-69) | 3 (50-69) | 4 (70-89) |  |
| CCCCCCOc1cc(N2C(=O)C3=C(CCCC3)C2=O)c(F)cc1Cl [compound 8] |  |  | 4 (70-89) | 5 (90-100) | 5 (90-100) | 4 (70-89) | 5 (90-100) | 5 (90-100) | 5 (90-100) | 5 (90-100) | 5 (90-100) | 0 (0-9) | 0 (0-9) | 0 (0-9) | 5 (90-100) | 5 (90-100) | 5 (90-100) | 4 (70-89) | 4 (70-89) | 5 (90-100) |  |
| CCCCCCCOc1cc(N2C(=O)C3=C(CCCC3)C2=O)c(F)cc1Cl [compound 9] |  |  | 3 (50-69) | 4 (70-89) | 4 (70-89) | 4 (70-89) | 4 (70-89) | 5 (90-100) | 5 (90-100) | 5 (90-100) | 5 (90-100) | 0 (0-9) | 0 (0-9) | 0 (0-9) | 5 (90-100) | 5 (90-100) | 5 (90-100) | 3 (50-69) | 4 (70-89) | 4 (70-89) |  |

— patent US5030760A, “Tetrahydrophthalimides, and their production and use” (Sumitomo Chemical Company, Ltd., priority 1981, dated 1991)
